Measured values from patent US9211310B2, “Use of a Chinese medicine composition in preparing medicaments for treating secondary prevention of myocardial infarction” (TASLY PHARMACEUTICAL GROUP CO., LTD, priority 2010, dated 2015).

Test system: patients after acute myocardial infarction
Assay: TCM symptom score, total and single (chest pain, chest tightness, short breath, fatigue, palpitation, spontaneous perspiration, pale complexion), same clinical trial
Assay type: in vivo, human
Design: total score of TCM symptom, Mean / total score of TCM symptom, Min / total score of TCM symptom, Max / total score of TCM symptom, Md / change of total score of TCM symptom, Mean / change of total score of TCM symptom, Max / change of total score of TCM symptom, Md: scale not given here
Conditions: PP
Text: 3508 patients who were in accordance with the diagnostic standards of AMI for 28 days to 2 years and differentiated as Qi deficiency and blood stagnation syndrome by TCM were studied. 0.5 g Chinese medicine composition prepared by the method of EXAMPLE 1 (Coded as QSYQ) was administrated half an hour after meal, 3 times per day.
They included the overall survival time, angina pectoris score, TCM symptom score and life quality score, where angina pectoris score, TCM symptom score and life quality score were evaluated at randomization, in 1st, 3rd, 6th, 9th, 12th month after treatment and 18th month after follow-up.
The analysis method referred to the angina pectoris score.

[1] = 3 months after treatment-baseline
[2] = 6 months after treatment-baseline

In the case of `CC(=O)Oc1ccccc1C(=O)O` [Control group, aspirine], the “change of short breath 2, number of patients” value [1] is reported as 309, the “change of short breath 4, % of patients” value [1] is reported as “(2.36%)” and the “change of short breath 4, number of patients” value [1] is reported as 34. The “change of short breath 6, % of patients” value [1] was “(0.55%)”, the “change of short breath 6, number of patients” value [1] was 8 and the “change of short breath −2, % of patients” value [1] was “(5.27%)”. For the same compound, the “change of short breath −2, number of patients” value [1] was 76, the “change of short breath −4, % of patients” value [1] was “(0.14%)” and the “change of short breath −4, number of patients” value [1] was 2. For the same compound, the “change of short breath −6, % of patients” value [1] was “(0.00%)”, the “change of short breath −6, number of patients” value [1] was 0 and the “change of spontaneous perspiration 0, number of patients” value [1] was 898. The “change of spontaneous perspiration 0, percent of patients” value [1] was “(62.23%)”, the “change of spontaneous perspiration 1, number of patients” value [1] was 342 and the “change of spontaneous perspiration 1, percent of patients” value [1] was “(23.70%)”. The “change of spontaneous perspiration 2, number of patients” value [1] was 71, the “change of spontaneous perspiration 2, percent of patients” value [1] was “(4.92%)” and the “change of spontaneous perspiration 3, number of patients” value [1] was 16. The “change of spontaneous perspiration 3, percent of patients” value [1] was “(1.11%)”, the “change of spontaneous perspiration −1, number of patients” value [1] was 101 and the “change of spontaneous perspiration −1, percent of patients” value [1] was “(7.00%)”. For the same compound, the “change of spontaneous perspiration −2, number of patients” value [1] was 13, the “change of spontaneous perspiration −2, percent of patients” value [1] was “(0.90%)” and the “change of spontaneous perspiration −3, number of patients” value [1] was 2. The “change of spontaneous perspiration −3, percent of patients” value [1] was “(0.14%)”, the “distribution of total score of TCM symptom: Medium, number of patients” value (6 months after treatment) was 377 and the “distribution of total score of TCM symptom: Medium, percentage of patients” value (6 months after treatment) was “(26.40%)”. For the same compound, the “distribution of total score of TCM symptom: Mild, number of patients” value (6 months after treatment) was 1044, the “distribution of total score of TCM symptom: Mild, percentage of patients” value (6 months after treatment) was “(73.11%)” and the “distribution of total score of TCM symptom: Severe, number of patients” value (6 months after treatment) was 7. The “distribution of total score of TCM symptom: Severe, percentage of patients” value (6 months after treatment) was “(0.49%)”, the “fatigue score 0, % of patients” value (6 months after treatment) was “(31.00%)” and the “fatigue score 0, number of patients” value (6 months after treatment) was 443. For the same compound, the “fatigue score 2, % of patients” value (6 months after treatment) was “(61.65%)”, the “fatigue score 2, number of patients” value (6 months after treatment) was 881 and the “fatigue score 4, % of patients” value (6 months after treatment) was “(6.79%)”. The “fatigue score 4, number of patients” value (6 months after treatment) was 97, the “fatigue score 6, % of patients” value (6 months after treatment) was “(0.56%)” and the “fatigue score 6, number of patients” value (6 months after treatment) was 8. The “pale complexion score 0, number of patients” value (6 months after treatment) was 750, the “pale complexion score 0, percent of patients” value (6 months after treatment) was “(52.48%)” and the “pale complexion score 1, number of patients” value (6 months after treatment) was 540. For the same compound, the “pale complexion score 1, percent of patients” value (6 months after treatment) was “(37.79%)”, the “pale complexion score 2, number of patients” value (6 months after treatment) was 133 and the “pale complexion score 2, percent of patients” value (6 months after treatment) was “(9.31%)”. The “pale complexion score 3, number of patients” value (6 months after treatment) was 6, the “pale complexion score 3, percent of patients” value (6 months after treatment) was “(0.42%)” and the “palpitation score 0, number of patients” value (6 months after treatment) was 456. The “palpitation score 0, percent of patients” value (6 months after treatment) was “(31.91%)”, the “palpitation score 2, number of patients” value (6 months after treatment) was 764 and the “palpitation score 2, percent of patients” value (6 months after treatment) was “(53.46%)”. For the same compound, the “palpitation score 4, number of patients” value (6 months after treatment) was 192, the “palpitation score 4, percent of patients” value (6 months after treatment) was “(13.44%)” and the “palpitation score 6, number of patients” value (6 months after treatment) was 17. The “palpitation score 6, percent of patients” value (6 months after treatment) was “(1.19%)”, the “short breath score 0, % of patients” value (6 months after treatment) was “(25.21%)” and the “short breath score 0, number of patients” value (6 months after treatment) was 360. The “short breath score 2, % of patients” value (6 months after treatment) was “(0.07%)”, the “short breath score 2, number of patients” value (6 months after treatment) was 1 and the “short breath score 3, % of patients” value (6 months after treatment) was “(58.68%)”. For the same compound, the “short breath score 3, number of patients” value (6 months after treatment) was 838, the “short breath score 6, % of patients” value (6 months after treatment) was “(15.55%)” and the “short breath score 6, number of patients” value (6 months after treatment) was 222. For the same compound, the “short breath score 9, % of patients” value (6 months after treatment) was “(0.49%)”, the “short breath score 9, number of patients” value (6 months after treatment) was 7 and the “spontaneous perspiration score 0, number of patients” value (6 months after treatment) was 628. For the same compound, the “spontaneous perspiration score 0, percent of patients” value (6 months after treatment) was “(43.98%)”, the “spontaneous perspiration score 1, number of patients” value (6 months after treatment) was 676 and the “spontaneous perspiration score 1, percent of patients” value (6 months after treatment) was “(47.34%)”. The “spontaneous perspiration score 2, number of patients” value (6 months after treatment) was 117, the “spontaneous perspiration score 2, percent of patients” value (6 months after treatment) was “(8.19%)” and the “spontaneous perspiration score 3, number of patients” value (6 months after treatment) was 7. For the same compound, the “spontaneous perspiration score 3, percent of patients” value (6 months after treatment) was “(0.49%)”, the “total score of TCM symptom, Max” value (6 months after treatment) was 34.00 and the “total score of TCM symptom, Md” value (6 months after treatment) was 9.00. For the same compound, the “total score of TCM symptom, Mean” value (6 months after treatment) was 9.79, the “total score of TCM symptom, Min” value (6 months after treatment) was 0.00 and the “change of fatigue 0, % of patients” value [2] was “(55.47%)”. The “change of fatigue 0, number of patients” value [2] was 791, the “change of fatigue 2, % of patients” value [2] was “(30.01%)” and the “change of fatigue 2, number of patients” value [2] was 428. The “change of fatigue 4, % of patients” value [2] was “(6.80%)”, the “change of fatigue 4, number of patients” value [2] was 97 and the “change of fatigue 6, % of patients” value [2] was “(1.12%)”. The “change of fatigue 6, number of patients” value [2] was 16, the “change of fatigue −2, % of patients” value [2] was “(6.03%)” and the “change of fatigue −2, number of patients” value [2] was 86. The “change of fatigue −4, % of patients” value [2] was “(0.56%)”, the “change of fatigue −4, number of patients” value [2] was 8 and the “change of fatigue −6, % of patients” value [2] was “(0.00%)”. The “change of fatigue −6, number of patients” value [2] was 0, the “change of pale complexion 0, number of patients” value [2] was 1104 and the “change of pale complexion 0, percent of patients” value [2] was “(77.47%)”. For the same compound, the “change of pale complexion 1, number of patients” value [2] was 272, the “change of pale complexion 1, percent of patients” value [2] was “(19.09%)” and the “change of pale complexion −1, number of patients” value [2] was 49. The “change of pale complexion −1, percent of patients” value [2] was “(3.44%)”, the “change of palpitation 0, number of patients” value [2] was 842 and the “change of palpitation 0, percent of patients” value [2] was “(59.09%)”. The “change of palpitation 1, number of patients” value [2] was 431, the “change of palpitation 1, percent of patients” value [2] was “(30.25%)” and the “change of palpitation 2, number of patients” value [2] was 53. For the same compound, the “change of palpitation 2, percent of patients” value [2] was “(3.72%)”, the “change of palpitation 3, number of patients” value [2] was 7 and the “change of palpitation 3, percent of patients” value [2] was “(0.49%)”. For the same compound, the “change of palpitation −1, number of patients” value [2] was 88, the “change of palpitation −1, percent of patients” value [2] was “(6.18%)” and the “change of palpitation −2, number of patients” value [2] was 4. The “change of palpitation −2, percent of patients” value [2] was “(0.28%)”, the “change of short breath 0, % of patients” value [2] was “(63.53%)” and the “change of short breath 0, number of patients” value [2] was 906. For the same compound, the “change of short breath 2, % of patients” value [2] was “(27.14%)”, the “change of short breath 2, number of patients” value [2] was 387 and the “change of short breath 4, % of patients” value [2] was “(3.16%)”. The “change of short breath 4, number of patients” value [2] was 45, the “change of short breath 6, % of patients” value [2] was “(0.56%)” and the “change of short breath 6, number of patients” value [2] was 8. The “change of short breath −2, % of patients” value [2] was “(5.33%)”, the “change of short breath −2, number of patients” value [2] was 76 and the “change of short breath −4, % of patients” value [2] was “(0.14%)”. The “change of short breath −4, number of patients” value [2] was 2, the “change of short breath −6, % of patients” value [2] was “(0.14%)” and the “change of short breath −6, number of patients” value [2] was 2.
